Data from patent US12510533B2, “Methods for treating multiple myeloma and the use of companion biomarkers for 4-(4-(4-(((2-(2,6-dioxopiperidin-3-yl)-1-oxoisoindolin-4-yl)oxy)methyl)benzyl)piperazin-1-yl)-3-fluorobenzonitrile” (Celgene Corporation, priority 2018, dated 2025).
Where two headings read alike, the source gives them in different places.

What was measured:
Aiolos = target: T1, Aiolos (Homo sapiens, UniProt Q96SW2+Q9UKT9); test: Aiolos degradation, ePL luminescence assay in DF15 cells expressing ePL-tagged Aiolos; assay type: cell-based; conditions: for DC50: read-out: Degradation of Aiolos IC50, DF15 cells
T1 construct: expressed in transfected cells; host or cells: DF15 multiple myeloma cells
T1 sequence (Q9UKT9 whole entry): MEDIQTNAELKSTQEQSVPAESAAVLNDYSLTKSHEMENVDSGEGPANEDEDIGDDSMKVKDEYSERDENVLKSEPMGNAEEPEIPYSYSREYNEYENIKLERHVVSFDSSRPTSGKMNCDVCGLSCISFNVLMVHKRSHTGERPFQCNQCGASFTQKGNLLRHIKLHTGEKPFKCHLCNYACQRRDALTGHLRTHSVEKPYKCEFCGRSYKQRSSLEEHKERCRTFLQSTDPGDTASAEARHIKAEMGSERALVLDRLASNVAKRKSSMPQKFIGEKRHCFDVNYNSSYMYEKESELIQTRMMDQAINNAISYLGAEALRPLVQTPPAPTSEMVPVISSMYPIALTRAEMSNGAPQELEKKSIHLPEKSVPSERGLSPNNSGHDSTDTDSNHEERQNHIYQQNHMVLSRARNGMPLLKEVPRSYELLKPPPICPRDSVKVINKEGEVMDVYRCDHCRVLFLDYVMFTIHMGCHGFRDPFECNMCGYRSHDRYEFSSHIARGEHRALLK
T1 sequence (Q96SW2 whole entry): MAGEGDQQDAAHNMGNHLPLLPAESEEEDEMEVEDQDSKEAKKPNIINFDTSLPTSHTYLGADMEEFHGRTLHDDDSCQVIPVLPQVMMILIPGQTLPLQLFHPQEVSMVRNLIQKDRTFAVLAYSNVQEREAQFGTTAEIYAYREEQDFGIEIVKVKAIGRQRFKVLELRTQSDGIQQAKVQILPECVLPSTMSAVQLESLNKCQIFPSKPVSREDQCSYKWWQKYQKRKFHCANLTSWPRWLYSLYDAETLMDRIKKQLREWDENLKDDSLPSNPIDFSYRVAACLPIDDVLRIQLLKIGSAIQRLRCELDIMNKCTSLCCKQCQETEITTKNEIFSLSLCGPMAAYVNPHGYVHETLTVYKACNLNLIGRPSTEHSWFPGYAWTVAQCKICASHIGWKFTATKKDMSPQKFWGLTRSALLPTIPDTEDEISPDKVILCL
T1 sequence (Q16531 2-1140, further chain): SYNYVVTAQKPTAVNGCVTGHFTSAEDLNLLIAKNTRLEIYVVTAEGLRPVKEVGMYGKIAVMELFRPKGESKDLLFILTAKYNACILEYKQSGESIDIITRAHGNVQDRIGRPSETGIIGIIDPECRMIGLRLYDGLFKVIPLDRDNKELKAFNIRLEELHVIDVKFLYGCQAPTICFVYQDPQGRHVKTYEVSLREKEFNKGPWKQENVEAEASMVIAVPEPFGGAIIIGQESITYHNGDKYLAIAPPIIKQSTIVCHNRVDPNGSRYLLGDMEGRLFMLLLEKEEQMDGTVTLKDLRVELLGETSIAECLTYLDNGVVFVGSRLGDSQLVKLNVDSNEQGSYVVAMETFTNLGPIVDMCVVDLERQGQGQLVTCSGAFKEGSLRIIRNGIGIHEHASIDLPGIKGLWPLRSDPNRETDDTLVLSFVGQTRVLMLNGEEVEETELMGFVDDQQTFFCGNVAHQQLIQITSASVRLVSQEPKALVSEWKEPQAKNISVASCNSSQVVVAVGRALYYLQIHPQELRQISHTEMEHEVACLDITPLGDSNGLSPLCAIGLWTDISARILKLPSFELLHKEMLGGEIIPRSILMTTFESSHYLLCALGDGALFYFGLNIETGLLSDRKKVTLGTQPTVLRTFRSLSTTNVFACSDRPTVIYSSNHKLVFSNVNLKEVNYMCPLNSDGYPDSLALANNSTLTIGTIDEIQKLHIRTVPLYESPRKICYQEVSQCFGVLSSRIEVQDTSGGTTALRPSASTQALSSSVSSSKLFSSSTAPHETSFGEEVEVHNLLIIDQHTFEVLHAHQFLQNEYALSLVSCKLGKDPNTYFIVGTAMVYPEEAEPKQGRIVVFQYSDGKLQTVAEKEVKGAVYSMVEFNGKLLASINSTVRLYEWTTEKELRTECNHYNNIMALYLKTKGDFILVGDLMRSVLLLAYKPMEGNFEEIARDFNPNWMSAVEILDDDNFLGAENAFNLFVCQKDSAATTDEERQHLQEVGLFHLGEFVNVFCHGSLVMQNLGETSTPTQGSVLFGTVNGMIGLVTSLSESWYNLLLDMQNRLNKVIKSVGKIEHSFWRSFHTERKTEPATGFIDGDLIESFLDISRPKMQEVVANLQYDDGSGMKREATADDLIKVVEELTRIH
Method: FIG. 1 illustrates that Compound 2 and Compound 3 degraded Aiolos protein in a time and concentration dependent manner. DF15 cells expressing Enhanced ProLabel (ePL)-tagged Aiolos were incubated with Compound 2 (triangle) or Compound 3 (square) for 45 minutes, 90 minutes, or 3 hours at the indicated concentrations. Cell extracts were then generated and the amount of Aiolos-ePL protein was determined by ePL luminescence assay.
The relative effectiveness of Compound 2 and Compound 3 to promote the destruction of Aiolos protein by the CRL4^CRBN E3 ubiquitin ligase was investigated in DF15 myeloma cells at different time points (45 minutes, 90 minutes, and 3 hours). DF15 cells expressing Enhanced ProLabel (ePL)-tagged Aiolos were incubated with Compound 2 or Compound 3 for 45 minutes, 90 minutes, or 3 hours. Cell extracts were then generated and the amount of Aiolos ePL protein was determined by ePL luminescence assay. Values shown in Table 1 correspond to data presented in FIG. 1 for Aiolos content vs. concentration.

Aiolos and Ikaros = Aiolos and Ikaros degradation and re-expression by flow cytometry in H929-1051 and OPM2-P10 cells; assay type: cell-based, human
Method: The cell lines were treated with a single continuous exposure to Compound 2, with no washout, and the levels of Aiolos and Ikaros were measured by flow cytometry. After treatment there was greater than 70% degradation of Aiolos and Ikaros within 3 to 6 hours, depending on the cell line (FIG. 7A and FIG. 7B). The depletion of substrates was sustained for up to 70 hours in H929-1051 cells or up to 100 hours in OPM2-P10 cells (FIG. 7A and FIG. 7B). Increasing the concentration 10-fold to 0.1 μM produced little to no additional degradation (FIG. 7A and FIG. 7B).
The effect of transient exposures of H929-1051 cells to Compound 2 on the degradation of Aiolos and Ikaros was also evaluated. A short transient exposure of 15 minutes at 0.1 μM Compound 2 induced Aiolos and Ikaros degradation (FIG. 8). Although the extent of degradation (25% to 50%) was not complete, a prolonged pharmacodynamic (PD) effect was seen that lasted between 25 and 50 hours post-exposure (FIG. 8).
To further understand the kinetics of Compound 2 exposure and Aiolos and Ikaros degradation, a longer exposure of 6 hours to Compound 2 (0.01 and 0.1 μM), followed by washout was investigated. Treatment with Compound 2 produced greater than 70% degradation of Aiolos and Ikaros (FIG. 9). […] Greater than 75% substrate recovery was seen by 25 hours in cells exposed to 0.01 μM Compound 2 and within 75 to 100 hours in cultures exposed to 0.1 μM Compound 2 (FIG. 9).

H929-1051 cells = test: PBMC-induced MM cell lysis, PBMCs and MM cells both pretreated, versus single MM culture (H929-1051); assay type: cell-based, human; conditions: PBMCs and MM cells both preincubated 72 hours
Method: Ninety-six-well dishes were pre-coated with anti-CD3 antibody (OKT3, 3 μg/mL) and incubated at 4° C. overnight before the start of the experiment. Frozen PBMC donor cells were thawed at 37° C. for 2 minutes in RPMI medium with 10% FBS and cell counts and viability were measured on the Vi-CELL analyzer. Peripheral blood mononuclear cells were washed and diluted to 1×10^6 cells/mL and dispensed into the compound-treated plates in a total volume of 200 μL. Cells were incubated with Compound 2 for 2 hours before being transferred onto anti-CD3-coated plates and incubated for an additional 72 hours. At the same time, MM cell lines (NCI-H929, H929-1051, OPM2, OPM2-P10) were diluted to a final concentration of 0.1×10^6 cells/mL and labeled with CellTrace CFSE according to manufacturer's instructions. Multiple myeloma cell lines were then dispensed into compound-treated plates at a total volume of 200 μL and incubated for 72 hours. After 72 hours, the PBMCs and MM cells were counted and transferred into a U-bottom 96-well plate at a final T:E ratio of 1:5. After 24 hours coculture, specific target cell lysis by PBMC mediated apoptosis was measured using Annexin V-AF647 and 7-AAD according to manufacturer's instructions and samples were run on the Attune NxT Cytometer. […]

H929-1051 = test: Apoptosis by Caspase-Glo 3/7 normalized to CellTiter-Glo in H929-1051 cells, dexamethasone alone or with compound; assay type: cell-based, human; conditions: 72 hours; Compound 2 0.001, 0.01 or 0.1 μM
Method: Dexamethasone was dispensed at 20 concentrations, using an acoustic dispenser. The plates were sealed and stored at room temperature for the next day. […] Cells were dispensed into the assay plates with a Multidrop dispenser and duplicate plates were made for the assay. Measurement of apoptosis was made at 72 hours post-compound treatment using a Caspase-Glo 3/7 and CellTiter-Glo Assays. The Caspase-Glo 3/7 luminescence was normalized to the CellTiter-Glo luminescence to account for differences in cell number. The fold change of the treated sample was calculated as follows: normalized caspase of treated sample/average of normalized DMSO control.

[1] = continuous exposure, OPM2-P10 cells

`N#Cc1ccc(N2CCN(Cc3ccc(COc4cccc5c4CN([C@H]4CCC(=O)NC4=O)C5=O)cc3)CC2)c(F)c1` [Compound 2, (S)-4-(4-(4-(((2-(2,6-dioxopiperidin-3-yl)-1-oxoisoindolin-4-yl)oxy)methyl)benzyl)piperazin-1-yl)-3-fluorobenzonitrile] was tested, and the “manner of Aiolos degradation” value (Aiolos; 45 minutes, 90 minutes, 3 hours) was “time-dependent and concentration-dependent”, the inhibition at 0.001 µM (Aiolos; DF15, read-out: inhibition at 0.001 μM) was 27% and the DC50 (Aiolos; 45 minutes incubation) was over 100 nM. The DC50 (Aiolos; 90 minutes incubation) was 0.36 nM, the DC50 (Aiolos; 3 hours incubation) was 0.031 nM and the “degradation of Aiolos and Ikaros” value (Aiolos and Ikaros; 6 hours exposure (0.01 and 0.1 μM) followed by washout) was “greater than 70%”. The “duration of sustained depletion of substrates” value (Aiolos and Ikaros; continuous exposure, H929-1051 cells) was “up to 70 hours”, the “duration of sustained degradation of both proteins (Aiolos and Ikaros)” value (Aiolos and Ikaros; [1]) was “more than 150 hours” and the “duration of sustained depletion of substrates” value (Aiolos and Ikaros; [1]) was “up to 100 hours”. The “degradation of Aiolos and Ikaros” value (Aiolos and Ikaros; single continuous exposure, no washout, H929-1051 and OPM2-P10) was “greater than 70%”, the “enhancement of killing, IC50 of single MM culture versus immune and tumor cell co-culture” value (H929-1051 cells) was about 6000 fold and the “shift of the onset of dexamethasone activity in the presence of Compound 2” value (H929-1051) was 1 log.
